Species: Rattus norvegicus
Assay: Open TG-GATES - Regimen: Daily Repeat
Assay type: toxicity, organism-based, Sprague-Dawley
Design: regimen Daily Repeat, gender Male, age 6 weeks
Conditions: in vivo, po, 5 mg/kg, route gavage, dose level Middle; for APTT / Bas / Eos / Fbg / Hb / Ht / Lym / MCH / MCHC / MCV / Mono / Neu / PT / Plat / RBC / Ret / WBC: tissue Blood; for KIDNEY_L / KIDNEY_R / KIDNEY_TOTAL: tissue Kidney; for LIVER: tissue Liver; for ALP / ALT / AST / BUN / CRE / Ca / Cl / DBIL / GLC / IP / K / LDH / Na / PL / RALB / TBIL / TC / TG / TP / gamma-GTP: tissue Plasma

SMILES: O=P1(N(CCCl)CCCl)NCCCO1 (stereo not drawn) [CYCLOPHOSPHAMIDE ANHYDROUS]
- TERMINAL_BW (72 h, time 3 day): 226.6 g
- APTT (72 h, time 3 day): 21.9 s
- Bas (72 h, time 3 day): 0%
- Eos (72 h, time 3 day): 1%
- Fbg (72 h, time 3 day): 272.4 mg/dL
- Hb (72 h, time 3 day): 13 g/dL
- Ht (72 h, time 3 day): 39.1%
- Lym (72 h, time 3 day): 81.6%
- MCH (72 h, time 3 day): 21.9 pg
- MCHC (72 h, time 3 day): 33.2%
- MCV (72 h, time 3 day): 65.8 fL
- Mono (72 h, time 3 day): 2.4%
- Neu (72 h, time 3 day): 14%
- PT (72 h, time 3 day): 16.9 s
- Plat (72 h, time 3 day): 114.8 x10_4/uL
- RBC (72 h, time 3 day): 593 x10_4/ul
- Ret (72 h, time 3 day): 6.3%
- WBC (72 h, time 3 day): 54.2 x10_2/uL
- KIDNEY_L (72 h, time 3 day): 1 g
- KIDNEY_R (72 h, time 3 day): 1 g
- KIDNEY_TOTAL (72 h, time 3 day): 2 g
- LIVER (72 h, time 3 day): 10.7 g
- ALP (72 h, time 3 day): 1691.2 IU/L
- ALT (72 h, time 3 day): 40.6 IU/L
- AST (72 h, time 3 day): 68.6 IU/L
- BUN (72 h, time 3 day): 17 mg/dL
- CRE (72 h, time 3 day): 0.2 mg/dL
- Ca (72 h, time 3 day): 10.9 mg/dL
- Cl (72 h, time 3 day): 104.6 meq/L
- DBIL (72 h, time 3 day): 0.002 mg/dL
- GLC (72 h, time 3 day): 182.8 mg/dL
- IP (72 h, time 3 day): 8 mg/dL
- K (72 h, time 3 day): 4.1 meq/L
- LDH (72 h, time 3 day): 172 IU/L
- Na (72 h, time 3 day): 141.6 meq/L
- PL (72 h, time 3 day): 149.6 mg/dL
- RALB (72 h, time 3 day): 3 g/dL
- TBIL (72 h, time 3 day): 0.022 mg/dL
- TC (72 h, time 3 day): 75.4 mg/dL
- TG (72 h, time 3 day): 94.4 mg/dL
- TP (72 h, time 3 day): 5.5 g/dL
- gamma-GTP (72 h, time 3 day): 1 IU/L
- TERMINAL_BW ([…], time 7 day): 245.9 g
- TERMINAL_BW ([…], time 14 day): 288.6 g
- TERMINAL_BW ([…], time 28 day): 359.3 g
- APTT ([…], time 7 day): 22 s
- Bas ([…], time 7 day): 0%
- Eos ([…], time 7 day): 0.6%
- Fbg ([…], time 7 day): 273.8 mg/dL
- Hb ([…], time 7 day): 13.5 g/dL
- Ht ([…], time 7 day): 40.4%
- Lym ([…], time 7 day): 82.4%
- MCH ([…], time 7 day): 20.9 pg
- MCHC ([…], time 7 day): 33.4%
- MCV ([…], time 7 day): 62.7 fL
- Mono ([…], time 7 day): 3.2%
- Neu ([…], time 7 day): 12.6%
- PT ([…], time 7 day): 15.8 s
- Plat ([…], time 7 day): 133.9 x10_4/uL
- RBC ([…], time 7 day): 644.2 x10_4/ul
- Ret ([…], time 7 day): 5.3%
- WBC ([…], time 7 day): 36.4 x10_2/uL
- APTT ([…], time 14 day): 22 s
- Bas ([…], time 14 day): 0%
- Eos ([…], time 14 day): 1.4%
- Fbg ([…], time 14 day): 305.8 mg/dL
- Hb ([…], time 14 day): 13.8 g/dL
- Ht ([…], time 14 day): 40.5%
- Lym ([…], time 14 day): 75.2%
- MCH ([…], time 14 day): 20.4 pg
- MCHC ([…], time 14 day): 34%
- MCV ([…], time 14 day): 59.9 fL
- Mono ([…], time 14 day): 4.6%
- Neu ([…], time 14 day): 17.2%
- PT ([…], time 14 day): 14.6 s
- Plat ([…], time 14 day): 116.3 x10_4/uL
- RBC ([…], time 14 day): 676.8 x10_4/ul
- Ret ([…], time 14 day): 3.5%
- WBC ([…], time 14 day): 27.7 x10_2/uL
- APTT ([…], time 28 day): 21.7 s
- Bas ([…], time 28 day): 0%
- Eos ([…], time 28 day): 1.4%
- Fbg ([…], time 28 day): 308 mg/dL
- Hb ([…], time 28 day): 14.5 g/dL
- Ht ([…], time 28 day): 42.5%
- Lym ([…], time 28 day): 73%
- MCH ([…], time 28 day): 19.3 pg
- MCHC ([…], time 28 day): 34.3%
- MCV ([…], time 28 day): 56.5 fL
- Mono ([…], time 28 day): 3.6%
- Neu ([…], time 28 day): 20.8%
- PT ([…], time 28 day): 16 s
- Plat ([…], time 28 day): 110.7 x10_4/uL
- RBC ([…], time 28 day): 752.2 x10_4/ul
- Ret ([…], time 28 day): 3%
- WBC ([…], time 28 day): 35.5 x10_2/uL
- KIDNEY_L ([…], time 7 day): 1 g
- KIDNEY_R ([…], time 7 day): 1 g
- KIDNEY_TOTAL ([…], time 7 day): 2 g
- KIDNEY_L ([…], time 14 day): 1.2 g
- KIDNEY_R ([…], time 14 day): 1.2 g
- KIDNEY_TOTAL ([…], time 14 day): 2.3 g
- KIDNEY_L ([…], time 28 day): 1.3 g
- KIDNEY_R ([…], time 28 day): 1.3 g
- KIDNEY_TOTAL ([…], time 28 day): 2.6 g
- LIVER ([…], time 7 day): 10.8 g
- LIVER ([…], time 14 day): 12.3 g
- LIVER ([…], time 28 day): 14.6 g
- ALP ([…], time 7 day): 1412.8 IU/L
- ALT ([…], time 7 day): 38.2 IU/L
- AST ([…], time 7 day): 65 IU/L
- BUN ([…], time 7 day): 18.8 mg/dL
- CRE ([…], time 7 day): 0.2 mg/dL
- Ca ([…], time 7 day): 11 mg/dL
- Cl ([…], time 7 day): 105.6 meq/L
- DBIL ([…], time 7 day): 0 mg/dL
- GLC ([…], time 7 day): 180.4 mg/dL
- IP ([…], time 7 day): 6.8 mg/dL
- K ([…], time 7 day): 3.9 meq/L
- LDH ([…], time 7 day): 130 IU/L
- Na ([…], time 7 day): 142.8 meq/L
- PL ([…], time 7 day): 141.6 mg/dL
- RALB ([…], time 7 day): 2.9 g/dL
- TBIL ([…], time 7 day): 0.016 mg/dL
- TC ([…], time 7 day): 74.6 mg/dL
- TG ([…], time 7 day): 115.2 mg/dL
- TP ([…], time 7 day): 5.5 g/dL
- gamma-GTP ([…], time 7 day): 1.4 IU/L
- ALP ([…], time 14 day): 1134.4 IU/L
- ALT ([…], time 14 day): 36.6 IU/L
- AST ([…], time 14 day): 57.2 IU/L
- BUN ([…], time 14 day): 17.2 mg/dL
- CRE ([…], time 14 day): 0.2 mg/dL
- Ca ([…], time 14 day): 10.6 mg/dL
- Cl ([…], time 14 day): 108.6 meq/L
- DBIL ([…], time 14 day): 0 mg/dL
- GLC ([…], time 14 day): 171 mg/dL
- IP ([…], time 14 day): 7.1 mg/dL
- K ([…], time 14 day): 4 meq/L
- LDH ([…], time 14 day): 148.8 IU/L
- Na ([…], time 14 day): 143.6 meq/L
- PL ([…], time 14 day): 150.4 mg/dL
- RALB ([…], time 14 day): 3 g/dL
- TBIL ([…], time 14 day): 0.016 mg/dL
- TC ([…], time 14 day): 80.4 mg/dL
- TG ([…], time 14 day): 129.2 mg/dL
- TP ([…], time 14 day): 5.7 g/dL
- gamma-GTP ([…], time 14 day): 1 IU/L
- ALP ([…], time 28 day): 973.8 IU/L
- ALT ([…], time 28 day): 34.4 IU/L
- AST ([…], time 28 day): 57.8 IU/L
- BUN ([…], time 28 day): 16.8 mg/dL
- CRE ([…], time 28 day): 0.2 mg/dL
- Ca ([…], time 28 day): 10.5 mg/dL
- Cl ([…], time 28 day): 106.6 meq/L
- DBIL ([…], time 28 day): 0.002 mg/dL
- GLC ([…], time 28 day): 190.2 mg/dL
- IP ([…], time 28 day): 6.5 mg/dL
- K ([…], time 28 day): 3.8 meq/L
- LDH ([…], time 28 day): 133 IU/L
- Na ([…], time 28 day): 144 meq/L
- PL ([…], time 28 day): 135.8 mg/dL
- RALB ([…], time 28 day): 3.1 g/dL
- TBIL ([…], time 28 day): 0.024 mg/dL
- TC ([…], time 28 day): 68.8 mg/dL
- TG ([…], time 28 day): 111.6 mg/dL
- TP ([…], time 28 day): 5.9 g/dL
- gamma-GTP ([…], time 28 day): 1.2 IU/L

— ChEMBL document CHEMBL3885861, “Open TG-GATES”
